Assay results published in the NIST ThermoML archive (doi:10.1021/je100832h).

Conditions: Liquid; for mass density: 101.32 kPa, Vibrating tube method

CCCCCCC [heptane]
Conditions	mass density [kg/m3]
291.15 K	685.28
298.15 K	679.48
318.15 K	662.06
328.15 K	653.6

Ebulliometric method (Recirculating still)
Conditions	vapor or sublimation pressure [kPa]
305.26 K	8.32
310.22 K	10.55
314.93 K	13.09
316.5 K	14.07
319.71 K	16.19
323.62 K	19.1
326.44 K	21.45
329.04 K	23.79
331.48 K	26.14
333.21 K	27.97
335.5 K	30.51
337.48 K	32.84
339.56 K	35.53
341.35 K	37.87
342.96 K	40.12
344.47 K	42.35
346.04 K	44.75
347.28 K	46.71
348.72 K	49.09
350.12 K	51.49
351.21 K	53.41
352.49 K	55.76
353.62 K	57.88
354.79 K	60.18
356.25 K	63.11
357.84 K	66.42
358.68 K	68.27
359.98 K	71.15
361.33 K	74.25
362.3 K	76.55
363.32 K	79
364.24 K	81.28
365.32 K	84.05
366.2 K	86.3
366.87 K	88.1
367.97 K	91.09
368.83 K	93.46
369.84 K	96.33
370.85 K	98.98
371.11 K	100
371.35 K	100.68
371.56 K	101.32
372.42 K	103.92
373.25 K	106.48
373.98 K	108.71
374.93 K	111.77
375.41 K	113.35
376.29 K	116.21
377.17 K	119.14
377.51 K	120.32
378.49 K	123.7
379.37 K	126.8
380.26 K	130
380.83 K	132.04
392.89 K	182.39
393.79 K	186.6
394.43 K	189.67
395.1 K	192.97
395.73 K	196.04
396.09 K	197.85
396.5 K	199.97

CCCCC [pentane]
Conditions	mass density [kg/m3]	vapor or sublimation pressure [kPa]
291.15 K	628.22	–
298.15 K	621.35	–
309.3 K	–	101.32
